Reference: US20230049231A1 (priority 2019, published 2023)

How the values were obtained:
Kv1.3 potassium channel = biological target: T1, Kv1.3 potassium channel (Homo sapiens, UniProt P22001); assay: Kv1.3 potassium channel blocker activity, automated whole-cell patch clamp (Patchliner); type: cell-based; conditions: Kv1.3 potassium channel, whole-cell patch clamp
T1 construct: expressed in transfected cells
Summary of the method: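 IC50 came from Hill-equation fits of peak and AUC currents from the final pulse at each concentration, normalized to compound-free control. Compounds applied consecutively at 30 nM to 100 μM (up to 0.3% DMSO) to Kv1.3-expressing CHO-K1 cells, P/4 leak subtraction. Pulses were +40 mV, 100 ms, from −90 mV holding, at 0.1 Hz on Patchliner.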

hERG channel = biological target: T2, hERG channel (Homo sapiens, UniProt Q12809); assay: hERG electrophysiology, automated whole-cell patch clamp (Patchliner); type: cell-based; conditions: hERG channel, whole-cell patch clamp
T2 construct: expressed in transfected cells
T2 sequence (Q12809 whole entry): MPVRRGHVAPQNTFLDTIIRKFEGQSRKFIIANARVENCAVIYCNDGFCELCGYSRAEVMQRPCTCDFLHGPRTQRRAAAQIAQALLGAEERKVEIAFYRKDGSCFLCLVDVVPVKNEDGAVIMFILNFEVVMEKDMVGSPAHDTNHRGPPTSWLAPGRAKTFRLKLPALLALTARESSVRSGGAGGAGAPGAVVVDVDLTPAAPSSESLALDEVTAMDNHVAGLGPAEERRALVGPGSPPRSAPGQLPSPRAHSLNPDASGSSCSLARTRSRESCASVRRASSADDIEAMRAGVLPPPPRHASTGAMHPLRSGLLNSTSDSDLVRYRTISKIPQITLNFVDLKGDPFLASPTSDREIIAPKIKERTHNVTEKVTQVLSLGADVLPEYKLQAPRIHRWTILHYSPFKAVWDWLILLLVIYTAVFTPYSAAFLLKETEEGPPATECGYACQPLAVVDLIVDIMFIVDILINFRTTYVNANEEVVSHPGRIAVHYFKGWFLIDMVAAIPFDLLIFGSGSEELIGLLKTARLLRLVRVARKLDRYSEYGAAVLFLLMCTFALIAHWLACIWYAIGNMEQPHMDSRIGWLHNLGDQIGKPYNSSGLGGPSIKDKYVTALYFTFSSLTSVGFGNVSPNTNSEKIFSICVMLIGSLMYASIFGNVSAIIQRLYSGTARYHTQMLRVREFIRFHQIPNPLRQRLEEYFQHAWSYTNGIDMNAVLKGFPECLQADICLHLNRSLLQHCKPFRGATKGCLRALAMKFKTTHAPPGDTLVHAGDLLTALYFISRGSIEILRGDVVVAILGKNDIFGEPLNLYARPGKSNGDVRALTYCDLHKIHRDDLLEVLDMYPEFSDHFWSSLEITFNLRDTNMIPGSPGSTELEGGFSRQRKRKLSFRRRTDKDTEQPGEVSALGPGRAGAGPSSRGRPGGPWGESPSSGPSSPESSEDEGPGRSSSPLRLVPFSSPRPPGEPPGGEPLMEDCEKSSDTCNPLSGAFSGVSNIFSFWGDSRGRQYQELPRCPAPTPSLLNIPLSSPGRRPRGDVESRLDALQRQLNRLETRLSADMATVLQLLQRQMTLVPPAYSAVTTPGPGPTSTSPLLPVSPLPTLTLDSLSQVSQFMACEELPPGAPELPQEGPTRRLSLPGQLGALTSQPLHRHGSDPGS
Procedure: This assay is used to evaluate the disclosed compounds' inhibition activities against the hERG channel.
CHO-K1 cells stably expressing hERG were grown in Ham's F-12 Medium with glutamine containing 10% heat-inactivated FBS, 1% penicillin/streptomycin, hygromycin (100 μg/ml) and G418 (100 μg/ml). Cells were grown in culture flasks at 37° C. in a 5% CO2-humidified incubator.
The cells were bathed in an extracellular solution containing 140 mM NaCl, 4 mM KCl, 2 mM CaCl2), 1 mM MgCl2, 5 mM glucose, and 10 mM HEPES; pH adjusted to 7.4 with NaOH; 295-305 mOsm. The internal solution contained 50 mM KCl, 10 mM NaCl, 60 mM KF, 20 mM EGTA, and 10 mM HEPES; pH adjusted to 7.2 with KOH; 285 mOsm. All compounds were dissolved in DMSO at 30 mM. Compound stock solutions were freshly diluted with external solution to concentrations of 30 nM, 100 nM, 300 nM, 1 μM, 3 μM, 10 μM, 30 μM and 100 μM. The highest content of DMSO (0.3%) was present in 100 μM.
The voltage protocol (see Table 3) was designed to simulate voltage changes during a cardiac action potential with a 300 ms depolarization to +20 mV (analogous to the plateau phase of the cardiac action potential), a repolarization for 300 ms to −50 mV (inducing a tail current) and a final step to the holding potential of −80 mV. The pulse frequency was 0.3 Hz. Control (compound-free) and compound pulse trains for each compound concentration applied contained 70 pulses.
Whole-cell current recordings and compound application were enabled by means of an automated patch clamp platform Patchliner (Nanion). EPC 10 patch clamp amplifier (HEKA) along with Patchmaster software (HEKA Elektronik Dr. Schulze GmbH) was used for data acquisition. Data were sampled at 10 kHz without filtering. Increasing compound concentrations were applied consecutively to the same cell without washouts in between.
AUC and PEAK values were obtained with Patchmaster (HEKA Elektronik Dr. Schulze GmbH). To determine IC50 the last single pulse in the pulse train corresponding to a given compound concentration was used. Obtained AUC and PEAK values in the presence of compound were normalized to control values in the absence of compound. Using Origin (OridinLab), IC50 was derived from data fit to Hill equation: Icompound/Icontrol=(100-A)/(1+([compound]/IC50)nH)+A, where IC50 is the concentration at which current inhibition is half-maximal, [compound] is the applied compound concentration, A is the fraction of current that is not blocked and nH is the Hill coefficient.

T1 sequence (P22001 whole entry): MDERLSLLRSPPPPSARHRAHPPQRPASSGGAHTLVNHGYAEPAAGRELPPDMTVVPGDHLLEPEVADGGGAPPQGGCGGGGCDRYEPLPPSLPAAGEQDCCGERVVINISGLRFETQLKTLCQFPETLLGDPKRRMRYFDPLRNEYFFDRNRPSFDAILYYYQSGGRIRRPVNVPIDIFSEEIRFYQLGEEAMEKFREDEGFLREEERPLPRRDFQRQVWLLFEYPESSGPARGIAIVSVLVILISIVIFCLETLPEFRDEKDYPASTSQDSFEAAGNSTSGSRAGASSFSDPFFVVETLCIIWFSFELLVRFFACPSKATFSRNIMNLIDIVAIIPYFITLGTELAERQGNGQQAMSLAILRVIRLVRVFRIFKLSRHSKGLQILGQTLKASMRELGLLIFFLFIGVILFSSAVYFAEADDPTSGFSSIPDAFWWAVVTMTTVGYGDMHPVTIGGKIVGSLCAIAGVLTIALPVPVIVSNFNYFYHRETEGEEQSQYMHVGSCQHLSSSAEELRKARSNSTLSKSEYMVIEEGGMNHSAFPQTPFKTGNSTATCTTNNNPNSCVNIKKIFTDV

Row | IC50 (Kv1.3 potassium channel) [µM] | SMILES | IC50 (hERG channel) [µM]
1 | < 1 | CN(CCO)[C@H]1CC(=O)N2C[C@@H](c3c(O)ccc(Cl)c3Cl)C[C@H]2C1 (single isomer, unassigned) [Compound 205] | > 30
2 | < 1 | O=C1C[C@H](c2cn[nH]c2)C[C@@H]2C[C@H](c3c(O)ccc(Cl)c3Cl)CN12 (single isomer, unassigned) [Compound 216] | < 10
3 | < 1 | NC[C@@]1(O)CC(=O)N2C[C@@H](c3c(O)ccc(Cl)c3Cl)C[C@H]2C1 (single isomer, unassigned) [Compound 218] | > 30
4 | < 1 | NC(=O)[C@H]1CC(=O)N2C[C@@H](c3c(O)ccc(Cl)c3Cl)C[C@H]2C1 (single isomer, unassigned) [Compound 231] | > 30
5 | < 1 | O=C(NCCO)[C@@H]1CC(=O)N2C[C@@H](c3c(O)ccc(Cl)c3Cl)C[C@H]2C1 (single isomer, unassigned) [Compound 234] | > 30
6 | < 1 | O=C(NC1CNC1)[C@H]1CC(=O)N2C[C@@H](c3c(O)ccc(Cl)c3Cl)C[C@H]2C1 (single isomer, unassigned) [Compound 235] | > 30
7 | < 1 | O=C(NC1CNC1)[C@@H]1CC(=O)N2C[C@@H](c3c(O)ccc(Cl)c3Cl)C[C@H]2C1 (single isomer, unassigned) [Compound 236] | > 30
8 | < 1 | O=C1C[C@@H](CO)C[C@@H]2C[C@H](c3c(O)ccc(Cl)c3Cl)CN12 (single isomer, unassigned) [Compound 237] | > 30
9 | < 1 | O=C1C[C@H](CO)C[C@@H]2C[C@H](c3c(O)ccc(Cl)c3Cl)CN12 (single isomer, unassigned) [Compound 238] | > 30
10 | < 1 | CNC[C@@H]1CC(=O)N2C[C@@H](c3c(O)ccc(Cl)c3Cl)C[C@H]2C1 (single isomer, unassigned) [Compound 239] | > 30
11 | < 1 | O=C1C[C@@H](CN2CC(O)C2)C[C@@H]2C[C@H](c3c(O)ccc(Cl)c3Cl)CN12 (single isomer, unassigned) [Compound 242] | > 30
12 | < 1 | O=C1C[C@H](CN2CC(O)C2)C[C@@H]2C[C@H](c3c(O)ccc(Cl)c3Cl)CN12 (single isomer, unassigned) [Compound 243] | < 30
13 | < 1 | N[C@H]1CC2C[C@H](c3c(O)ccc(Cl)c3Cl)CN2C1=O (single isomer, unassigned) [Compound 248] | < 10
14 | < 1 | O=C1O[C@@H]([C@@H](O)CO)[C@@H]2C[C@H](c3c(O)ccc(Cl)c3Cl)CN12 (single isomer, unassigned) [Compound 260] | > 30
15 | < 1 | O=C1O[C@@H]([C@H](O)CO)[C@@H]2C[C@H](c3c(O)ccc(Cl)c3Cl)CN12 (single isomer, unassigned) [Compound 261] | > 30
16 | < 1 | O=C1O[C@H]([C@@H](O)CO)[C@@H]2C[C@H](c3c(O)ccc(Cl)c3Cl)CN12 (single isomer, unassigned) [Compound 262] | > 30
17 | < 1 | O=C1O[C@H]([C@H](O)CO)[C@@H]2C[C@H](c3c(O)ccc(Cl)c3Cl)CN12 (single isomer, unassigned) [Compound 263] | > 30
18 | < 1 | C[C@]1(CO)OC(=O)N2C[C@@H](c3c(O)ccc(Cl)c3Cl)C[C@H]21 (single isomer, unassigned) [Compound 264] | > 30
19 | < 1 | C[C@@]1(CO)OC(=O)N2C[C@@H](c3c(O)ccc(Cl)c3Cl)C[C@H]21 (single isomer, unassigned) [Compound 265] | > 30
20 | < 1 | O=C1O[C@@H](CO)C[C@@H]2C[C@H](c3c(O)ccc(Cl)c3Cl)CN12 (single isomer, unassigned) [Compound 269] | > 30
21 | < 1 | O=C(CO)NC[C@@H]1OC(=O)N2C[C@@H](c3c(O)ccc(Cl)c3Cl)C[C@@H]12 (single isomer, unassigned) [Compound 274] | > 30
22 | < 1 | O=C(NC[C@H]1OC(=O)N2C[C@@H](c3c(O)ccc(Cl)c3Cl)C[C@@H]12)C1CNC1 (single isomer, unassigned) [Compound 278] | > 30
23 | < 1 | O=C1O[C@H](CN2CCNCC2)[C@@H]2C[C@H](c3c(O)ccc(Cl)c3Cl)CN12 (single isomer, unassigned) [Compound 280] | > 30

More lines, now with the values behind:

Row | SMILES | IC50 (Kv1.3 potassium channel) [µM] | IC50 (hERG channel) [µM]
24 | O=C1CC(N2CCNCC2)C[C@@H]2C[C@H](c3c(O)ccc(Cl)c3Cl)CN12 (single isomer, unassigned) [Compound 207] | < 1 | > 30
25 | O=C1C[C@@H](c2cn[nH]c2)C[C@@H]2C[C@H](c3c(O)ccc(Cl)c3Cl)CN12 (single isomer, unassigned) [Compound 215] | < 1 | > 30
26 | NC[C@]1(O)CC(=O)N2C[C@@H](c3c(O)ccc(Cl)c3Cl)C[C@H]2C1 (single isomer, unassigned) [Compound 219] | < 1 | > 30
27 | O=C1O[C@@H](CO)[C@@H]2C[C@H](c3c(O)ccc(Cl)c3Cl)CN12 (single isomer, unassigned) [Compound 253] | < 1 | > 30
28 | O=C1O[C@H](CO)[C@@H]2C[C@H](c3c(O)ccc(Cl)c3Cl)CN12 (single isomer, unassigned) [Compound 254] | < 1 | > 30
29 | CC(C)(O)[C@@H]1OC(=O)N2C[C@@H](c3c(O)ccc(Cl)c3Cl)C[C@@H]12 (single isomer, unassigned) [Compound 256] | < 1 | > 30
30 | C[C@H](O)[C@H]1OC(=O)N2C[C@@H](c3c(O)ccc(Cl)c3Cl)C[C@@H]12 (single isomer, unassigned) [Compound 258] | < 1 | > 30
31 | C[C@@H](O)[C@@H]1OC(=O)N2C[C@@H](c3c(O)ccc(Cl)c3Cl)C[C@@H]12 (single isomer, unassigned) [Compound 259] | < 1 | > 30
32 | O=C1OC[C@@H](O)[C@@H]2C[C@H](c3c(O)ccc(Cl)c3Cl)CN12 (single isomer, unassigned) [Compound 266] | < 1 | > 30
33 | O=C1OC[C@H](O)[C@@H]2C[C@H](c3c(O)ccc(Cl)c3Cl)CN12 (single isomer, unassigned) [Compound 267] | < 1 | > 30
34 | O=C1O[C@H](CO)C[C@@H]2C[C@H](c3c(O)ccc(Cl)c3Cl)CN12 (single isomer, unassigned) [Compound 268] | < 1 | > 30
35 | O=C1O[C@H](CCO)[C@@H]2C[C@H](c3c(O)ccc(Cl)c3Cl)CN12 (single isomer, unassigned) [Compound 270] | < 1 | < 30
36 | O=C1O[C@@H](CCO)[C@@H]2C[C@H](c3c(O)ccc(Cl)c3Cl)CN12 (single isomer, unassigned) [Compound 271] | < 1 | < 30
37 | NC[C@@H]1OC(=O)N2C[C@@H](c3c(O)ccc(Cl)c3Cl)C[C@@H]12 (single isomer, unassigned) [Compound 272] | < 1 | < 30
38 | NC[C@H]1OC(=O)N2C[C@@H](c3c(O)ccc(Cl)c3Cl)C[C@@H]12 (single isomer, unassigned) [Compound 273] | < 1 | > 30
39 | O=C(CO)NC[C@H]1OC(=O)N2C[C@@H](c3c(O)ccc(Cl)c3Cl)C[C@@H]12 (single isomer, unassigned) [Compound 275] | < 1 | > 30
40 | O=C(NC[C@@H]1OC(=O)N2C[C@@H](c3c(O)ccc(Cl)c3Cl)C[C@@H]12)C1CNC1 (single isomer, unassigned) [Compound 277] | < 1 | > 30
41 | O=C1O[C@@H](CN2CCNCC2)[C@@H]2C[C@H](c3c(O)ccc(Cl)c3Cl)CN12 (single isomer, unassigned) [Compound 279] | < 1 | < 30
